# Measured values taken from US10301320B2, “Compositions and methods of modulating 15-PGDH activity” (CASE WESTERN RESERVE UNIVERSITY, priority 2012, dated 2019).
# Tested on: V9m reporter cell line expressing a 15-PGDH luciferase fusion construct
# Experiment: 15-PGDH-luciferase fusion gene reporter induction, V9m cell line
# Assay type: cell-based
# Details: read-out: V9M reporter activity ([…]), […]; % increased luciferase activity over basal level, 100 = doubling; read-out: V9M reporter activity (2.5 uM)
# Source text: These cell lines are Vaco-9m (V9m), LS174T, Vaco503 (V503). […] Value of 1.0 on the Y-axis is the basal level of reporter activity in cells treated with drug free DMSO vehicle.
# This Example provides data on a group of structural analogues of SW033291. Data provided includes level of induction of a 15-PGDH-luciferase fusion gene reporter, recorded as % increased luciferase activity over basal level, in three colon cancer cell lines, V9m, V503, and LS174T, engineered to contain the reporter, and treated with either 2.5 uM or 7.5 uM compound (i.e., Values are recorded on a scale where 100 indicates of doubling of luciferase activity over baseline level).
# FIGS. 27(A-C) show graphs that show the level of compound's activity in inducing the 15-PGDH-luciferase fusion reporter in three different test cell line backgrounds, V9m, LS174T, and V503. Each compound was tested at two concentrations, 2.5 uM, and 7.5 uM. Y-axis is luciferase activity.
# Data provided include level of induction of a 15-PGDH-luciferase fusion gene reporter, recorded as % induction of luciferase activity over basal level, in three colon cancer cell lines, V9m, V503, and LS174T, engineered to contain the reporter, and treated with either 2.5 uM or 7.5 uM compound. […] Additionally, for selected compounds is recorded the decrease in PGE2 levels in the media of compound treated A549 cells that have been stimulated with IL-1 beta. Additionally recorded for selected compounds is the effect on A549 cell viability as measured by a CellTiter-Glo assay, and the effect of compounds on A549 cell colony formation.
row,SMILES,activation at […] [%]
1,Nc1c([S+]([O-])Cc2ccccc2)sc2nc(-c3cccs3)cc(-c3ccccc3)c12 (stereo not drawn) [SW033292],1.51

# Same assay, conditions: read-out: V9M-SC3 Reporter activity % ([…]), Table 18; […]; read-out: V9M-SC3 Reporter activity % (7.5 μM)
row,SMILES,percent reporter induction over basal at […] [%]
1,COc1ccc(OC)c(N(CC(=O)NC2CCCCC2)S(=O)(=O)c2ccccc2)c1 [333446-93-8],44
2,COc1ccc(N(CC(=O)Nc2cccnc2)S(=O)(=O)c2ccccc2)c(OC)c1 [310875-38-8],-16.4
3,COc1cccc(N(CC(=O)Nc2cccnc2)S(=O)(=O)c2ccccc2)c1 [335392-39-7],7.18
4,COc1ccc(OC)c(N(CC(=O)Nc2ccc(C)cc2)S(=O)(=O)c2ccccc2)c1 [311333-86-5],117
5,CCc1ccccc1N(CC(=O)Nc1cccnc1)S(=O)(=O)c1ccccc1 [528580-69-0],-0.5
6,COc1ccc(OC)c(N(CC(=O)Nc2cccnc2)S(C)(=O)=O)c1 [527699-66-7],-37.2
7,COc1ccc(Cl)cc1N(CC(=O)Nc1cccnc1)S(=O)(=O)c1ccccc1 [328012-52-8],0.51
8,COc1ccccc1N(CC(=O)Nc1cccnc1)S(=O)(=O)c1ccccc1 [367929-80-4],-19
9,O=C(CN(c1ccccc1)S(=O)(=O)c1ccccc1)Nc1cccnc1 [331727-07-2],120
10,COc1ccc(OC)c(N(CC(=O)Nc2cccnc2)S(=O)(=O)c2ccc(OC)c(OC)c2)c1 [680599-58-0],-22.5
11,COC(=O)c1ccccc1NC(=O)CN(c1cc(OC)ccc1OC)S(=O)(=O)c1ccccc1 [333449-58-4],71.2
12,CCOc1ccc(N(CC(=O)Nc2cccnc2)S(=O)(=O)c2ccccc2)cc1 [428473-22-7],2.05
13,COc1ccc(N(CC(=O)Nc2cccnc2)S(=O)(=O)c2ccccc2)cc1 [418783-65-0],67.2
14,CCc1ccc(N(CC(=O)Nc2cccnc2)S(=O)(=O)c2ccccc2)cc1 [461439-84-9],-41.8
15,O=C(CN(c1ccc2c(c1)OCCO2)S(=O)(=O)c1ccccc1)Nc1cccnc1 [701217-00-7],79.5
16,COc1ccc(OC)c(N(CC(=O)Nc2cccnc2)S(=O)(=O)c2ccc(C)cc2)c1 [505072-23-1],71.5
17,O=C(CN(c1cc(Cl)ccc1Cl)S(=O)(=O)c1ccccc1)Nc1cccnc1 [833428-03-8],17.4
18,COc1ccc(OC)c(N(CC(=O)Nc2ccc(F)cc2)S(=O)(=O)c2ccccc2)c1 [426231-26-7],2.5
19,COc1ccc(OC)c(N(CC(=O)Nc2ccc(Cl)c(Cl)c2)S(=O)(=O)c2ccccc2)c1 [339589-55-8],8
20,COc1ccc(OC)c(N(CC(=O)Nc2ccccc2C(N)=O)S(=O)(=O)c2ccccc2)c1 [530107-57-4],116

# Target: recombinant 15-PGDH protein (Homo sapiens (Human), UniProt P15428)
# Experiment: Inhibition of enzymatic activity of recombinant 15-PGDH in vitro;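 also: activity of recombinant human 15-PGDH assayed in vitro using PGE2 as the substrate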
# Assay type: biochemical
# Details: read-out: Enzyme inhibition % ([…]), Table 18; […] compound; read-out: Enzyme inhibition % (2.5 μM)
# Sequence of recombinant 15-PGDH protein (P15428 whole entry): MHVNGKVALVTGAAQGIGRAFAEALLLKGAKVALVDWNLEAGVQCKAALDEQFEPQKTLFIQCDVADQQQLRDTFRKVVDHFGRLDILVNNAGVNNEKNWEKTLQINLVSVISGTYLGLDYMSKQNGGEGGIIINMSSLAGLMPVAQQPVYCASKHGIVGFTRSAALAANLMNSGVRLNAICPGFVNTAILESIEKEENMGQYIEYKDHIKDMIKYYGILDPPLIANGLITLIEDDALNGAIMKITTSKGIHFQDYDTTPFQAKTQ
row,SMILES,inhibition at […] [%]
1,COc1ccc(OC)c(N(CC(=O)NC2CCCCC2)S(=O)(=O)c2ccccc2)c1 [333446-93-8],-5.31
2,COc1ccc(N(CC(=O)Nc2cccnc2)S(=O)(=O)c2ccccc2)c(OC)c1 [310875-38-8],23.5
3,COc1cccc(N(CC(=O)Nc2cccnc2)S(=O)(=O)c2ccccc2)c1 [335392-39-7],11
4,COc1ccc(OC)c(N(CC(=O)Nc2ccc(C)cc2)S(=O)(=O)c2ccccc2)c1 [311333-86-5],34
5,CCc1ccccc1N(CC(=O)Nc1cccnc1)S(=O)(=O)c1ccccc1 [528580-69-0],-8.22
6,COc1ccc(OC)c(N(CC(=O)Nc2cccnc2)S(C)(=O)=O)c1 [527699-66-7],-20.6
7,COc1ccc(Cl)cc1N(CC(=O)Nc1cccnc1)S(=O)(=O)c1ccccc1 [328012-52-8],67.4
8,COc1ccccc1N(CC(=O)Nc1cccnc1)S(=O)(=O)c1ccccc1 [367929-80-4],8.95
9,O=C(CN(c1ccccc1)S(=O)(=O)c1ccccc1)Nc1cccnc1 [331727-07-2],9.65
10,COc1ccc(OC)c(N(CC(=O)Nc2cccnc2)S(=O)(=O)c2ccc(OC)c(OC)c2)c1 [680599-58-0],31.8
11,COC(=O)c1ccccc1NC(=O)CN(c1cc(OC)ccc1OC)S(=O)(=O)c1ccccc1 [333449-58-4],9.72
12,CCOc1ccc(N(CC(=O)Nc2cccnc2)S(=O)(=O)c2ccccc2)cc1 [428473-22-7],3.76
13,COc1ccc(N(CC(=O)Nc2cccnc2)S(=O)(=O)c2ccccc2)cc1 [418783-65-0],10.8
14,CCc1ccc(N(CC(=O)Nc2cccnc2)S(=O)(=O)c2ccccc2)cc1 [461439-84-9],9.28
15,O=C(CN(c1ccc2c(c1)OCCO2)S(=O)(=O)c1ccccc1)Nc1cccnc1 [701217-00-7],10.1
16,COc1ccc(OC)c(N(CC(=O)Nc2cccnc2)S(=O)(=O)c2ccc(C)cc2)c1 [505072-23-1],67.4
17,O=C(CN(c1cc(Cl)ccc1Cl)S(=O)(=O)c1ccccc1)Nc1cccnc1 [833428-03-8],16.4
18,COc1ccc(OC)c(N(CC(=O)Nc2ccc(F)cc2)S(=O)(=O)c2ccccc2)c1 [426231-26-7],39.8
19,COc1ccc(OC)c(N(CC(=O)Nc2ccc(Cl)c(Cl)c2)S(=O)(=O)c2ccccc2)c1 [339589-55-8],19.1
20,COc1ccc(OC)c(N(CC(=O)Nc2ccccc2C(N)=O)S(=O)(=O)c2ccccc2)c1 [530107-57-4],21.7

# Same assay, conditions: read-out: Enzyme inhibition % ([…]), Table 18; […] compound; read-out: Enzyme inhibition % (7.5 μM)
row,SMILES,inhibition at […] [%]
1,COc1ccc(OC)c(N(CC(=O)NC2CCCCC2)S(=O)(=O)c2ccccc2)c1 [333446-93-8],5.85
2,COc1ccc(N(CC(=O)Nc2cccnc2)S(=O)(=O)c2ccccc2)c(OC)c1 [310875-38-8],33.4
3,COc1cccc(N(CC(=O)Nc2cccnc2)S(=O)(=O)c2ccccc2)c1 [335392-39-7],5.37
4,CCc1ccccc1N(CC(=O)Nc1cccnc1)S(=O)(=O)c1ccccc1 [528580-69-0],10.2
5,COc1ccc(OC)c(N(CC(=O)Nc2cccnc2)S(C)(=O)=O)c1 [527699-66-7],27.9
6,COc1ccc(Cl)cc1N(CC(=O)Nc1cccnc1)S(=O)(=O)c1ccccc1 [328012-52-8],82.1
7,COc1ccccc1N(CC(=O)Nc1cccnc1)S(=O)(=O)c1ccccc1 [367929-80-4],34.8
8,O=C(CN(c1ccccc1)S(=O)(=O)c1ccccc1)Nc1cccnc1 [331727-07-2],17.5
9,COc1ccc(OC)c(N(CC(=O)Nc2cccnc2)S(=O)(=O)c2ccc(OC)c(OC)c2)c1 [680599-58-0],50.7
10,COC(=O)c1ccccc1NC(=O)CN(c1cc(OC)ccc1OC)S(=O)(=O)c1ccccc1 [333449-58-4],-3.12
11,CCOc1ccc(N(CC(=O)Nc2cccnc2)S(=O)(=O)c2ccccc2)cc1 [428473-22-7],8.67
12,COc1ccc(N(CC(=O)Nc2cccnc2)S(=O)(=O)c2ccccc2)cc1 [418783-65-0],12.1
13,CCc1ccc(N(CC(=O)Nc2cccnc2)S(=O)(=O)c2ccccc2)cc1 [461439-84-9],3.35
14,O=C(CN(c1ccc2c(c1)OCCO2)S(=O)(=O)c1ccccc1)Nc1cccnc1 [701217-00-7],13.1
15,COc1ccc(OC)c(N(CC(=O)Nc2cccnc2)S(=O)(=O)c2ccc(C)cc2)c1 [505072-23-1],84.6
16,O=C(CN(c1cc(Cl)ccc1Cl)S(=O)(=O)c1ccccc1)Nc1cccnc1 [833428-03-8],49.2
17,COc1ccc(OC)c(N(CC(=O)Nc2ccc(F)cc2)S(=O)(=O)c2ccccc2)c1 [426231-26-7],56.4
18,COc1ccc(OC)c(N(CC(=O)Nc2ccc(Cl)c(Cl)c2)S(=O)(=O)c2ccccc2)c1 [339589-55-8],22
19,COc1ccc(OC)c(N(CC(=O)Nc2ccccc2C(N)=O)S(=O)(=O)c2ccccc2)c1 [530107-57-4],9.25
